Data set [1] addresses T1, Protein Aster-A (Homo sapiens) (UniProt Q96CP6).
T1 sequence (whole entry): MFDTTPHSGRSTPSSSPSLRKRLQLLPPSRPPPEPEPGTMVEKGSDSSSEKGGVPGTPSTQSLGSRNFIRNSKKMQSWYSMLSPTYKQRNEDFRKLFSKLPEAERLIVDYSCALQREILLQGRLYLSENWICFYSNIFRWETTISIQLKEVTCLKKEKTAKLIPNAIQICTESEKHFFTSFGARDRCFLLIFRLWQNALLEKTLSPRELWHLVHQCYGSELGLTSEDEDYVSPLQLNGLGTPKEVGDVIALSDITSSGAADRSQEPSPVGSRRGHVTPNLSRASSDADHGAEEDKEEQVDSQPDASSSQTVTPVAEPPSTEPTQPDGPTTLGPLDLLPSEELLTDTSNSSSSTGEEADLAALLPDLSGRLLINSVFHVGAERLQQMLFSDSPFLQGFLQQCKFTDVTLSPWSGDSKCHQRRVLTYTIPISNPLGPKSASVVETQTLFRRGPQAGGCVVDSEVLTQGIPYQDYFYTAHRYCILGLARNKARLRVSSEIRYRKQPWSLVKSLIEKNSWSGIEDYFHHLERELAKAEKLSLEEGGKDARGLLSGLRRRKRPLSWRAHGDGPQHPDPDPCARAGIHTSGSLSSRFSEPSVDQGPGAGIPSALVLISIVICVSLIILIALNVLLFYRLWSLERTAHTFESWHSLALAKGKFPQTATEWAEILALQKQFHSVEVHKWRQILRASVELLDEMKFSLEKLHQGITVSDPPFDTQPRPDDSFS
As to the kind of experiment: Binding affinity to aster A (unknown origin) assessed as change in melting temperature by differential scanning fluorimetry analysis.

Data set [2] concerns the target T2, Protein Aster-A (Homo sapiens, UniProt Q96CP6).
T2 sequence (Q96CP6 whole entry): T1 sequence (whole entry)
Put plainly: Displacement of tert-butyl 2-(4-((3-(4-(3-((2-(2,6-dioxopiperidin-3-yl)-1,3-dioxoisoindolin-4-yl)amino)propoxy)butoxy)propyl)carbamoyl)benzamido)-3a,6,7,7a-tetrahydrothiazolo[5,4-c]pyridine-5(4H)-carboxylate from aster A (unknown origin) assessed as change in fluorescence intensity.

The target in data set [3] is T2, Protein Aster-A. As to the kind of experiment: Displacement of 22-NBD-Chol from aster A (unknown origin) by fluorescence polarization method.
For data set [4], the target named is T2, Protein Aster-A. As to the kind of experiment: Binding affinity to aster A (unknown origin) assessed as change in fluorescence intensity.
In data set [5] the target is T2, Protein Aster-A. Put plainly: Binding affinity to aster A (unknown origin) by fluorescence polarization method.
The target of data set [6] is Oxysterol-binding protein-related protein 1 (OSBPL1A) (Homo sapiens) (UniProt Q9BXW6). As to the kind of experiment: Binding affinity to ORP1 (unknown origin).
Oxysterol-binding protein-related protein 1 (OSBPL1A) (Homo sapiens), sequence (Q9BXW6 whole entry, looked up): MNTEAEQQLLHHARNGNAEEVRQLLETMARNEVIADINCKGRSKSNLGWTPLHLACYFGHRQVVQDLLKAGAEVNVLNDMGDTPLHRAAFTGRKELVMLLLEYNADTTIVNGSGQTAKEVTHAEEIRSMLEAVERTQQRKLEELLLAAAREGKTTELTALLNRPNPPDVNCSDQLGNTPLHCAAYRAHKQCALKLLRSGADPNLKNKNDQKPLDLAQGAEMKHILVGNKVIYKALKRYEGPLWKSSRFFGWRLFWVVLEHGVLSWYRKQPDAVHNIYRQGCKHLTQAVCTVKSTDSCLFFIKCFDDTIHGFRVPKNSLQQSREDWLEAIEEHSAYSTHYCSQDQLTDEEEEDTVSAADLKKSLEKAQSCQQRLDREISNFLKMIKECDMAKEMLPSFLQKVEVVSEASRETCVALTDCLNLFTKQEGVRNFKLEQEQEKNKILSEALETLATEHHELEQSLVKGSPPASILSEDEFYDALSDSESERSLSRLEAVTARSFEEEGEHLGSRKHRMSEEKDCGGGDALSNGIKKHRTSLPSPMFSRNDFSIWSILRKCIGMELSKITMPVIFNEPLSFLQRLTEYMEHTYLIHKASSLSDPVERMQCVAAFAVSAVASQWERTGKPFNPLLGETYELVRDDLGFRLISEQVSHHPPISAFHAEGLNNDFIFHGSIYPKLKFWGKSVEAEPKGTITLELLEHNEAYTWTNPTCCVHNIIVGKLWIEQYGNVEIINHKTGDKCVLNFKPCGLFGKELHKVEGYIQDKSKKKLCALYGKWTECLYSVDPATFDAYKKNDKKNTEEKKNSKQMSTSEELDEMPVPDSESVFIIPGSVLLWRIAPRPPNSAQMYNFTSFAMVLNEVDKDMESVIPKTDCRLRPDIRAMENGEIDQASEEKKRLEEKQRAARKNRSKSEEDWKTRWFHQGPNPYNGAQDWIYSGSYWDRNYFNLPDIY
The test system of another data set is MCF7. As to the kind of experiment: Inhibition of autophagy in human MCF7 cells expressing eGFP-LC3. Type of data set: functional, cell-based.
The nature of data set [7]: Drug uptake in human HeLa cells assessed as increase in intracellular fluorescence at 10 uM incubated for 1 hr by […] microscopic analysis. Type of data set: ADME, cell-based.
For a further data set, the species on record is Homo sapiens. Put plainly: Binding affinity to aster B (unknown origin).
In data set [8] the target is Protein Aster-C (Homo sapiens) (UniProt Q8IYS0). Put plainly: Binding affinity to aster C (unknown origin).
Protein Aster-C (Homo sapiens), sequence (Q8IYS0 whole entry): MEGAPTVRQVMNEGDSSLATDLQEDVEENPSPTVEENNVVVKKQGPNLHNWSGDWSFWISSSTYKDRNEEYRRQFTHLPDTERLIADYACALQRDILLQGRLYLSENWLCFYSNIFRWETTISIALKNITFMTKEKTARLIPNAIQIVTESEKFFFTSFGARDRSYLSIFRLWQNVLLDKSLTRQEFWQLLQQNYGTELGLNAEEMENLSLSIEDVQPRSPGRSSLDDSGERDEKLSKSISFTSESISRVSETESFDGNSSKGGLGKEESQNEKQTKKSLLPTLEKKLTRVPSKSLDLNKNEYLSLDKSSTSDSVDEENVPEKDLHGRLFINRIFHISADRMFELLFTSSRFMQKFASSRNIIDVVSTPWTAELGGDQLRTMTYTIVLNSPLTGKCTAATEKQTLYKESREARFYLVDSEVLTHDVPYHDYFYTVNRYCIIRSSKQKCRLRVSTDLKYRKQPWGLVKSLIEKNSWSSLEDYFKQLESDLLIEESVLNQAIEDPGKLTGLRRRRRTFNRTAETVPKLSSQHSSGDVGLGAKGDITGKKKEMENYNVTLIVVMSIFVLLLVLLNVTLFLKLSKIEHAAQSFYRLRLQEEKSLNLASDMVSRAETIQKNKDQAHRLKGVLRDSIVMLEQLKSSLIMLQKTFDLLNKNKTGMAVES
The target of data set [9] is T3, Steroidogenic acute regulatory protein, mitochondrial (Homo sapiens) (UniProt P49675).
T3 sequence (whole entry): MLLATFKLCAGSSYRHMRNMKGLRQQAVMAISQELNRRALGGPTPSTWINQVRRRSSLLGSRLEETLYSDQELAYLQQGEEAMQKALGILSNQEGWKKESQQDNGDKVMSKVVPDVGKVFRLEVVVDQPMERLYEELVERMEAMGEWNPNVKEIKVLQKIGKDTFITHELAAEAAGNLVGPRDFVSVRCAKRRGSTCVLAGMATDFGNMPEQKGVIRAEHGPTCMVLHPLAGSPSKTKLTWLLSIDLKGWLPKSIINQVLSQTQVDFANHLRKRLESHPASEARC
As to the kind of experiment: Binding affinity to STARD1 (unknown origin).

In data set [10] the target is T4, Protein cereblon/Protein Aster-A (Homo sapiens, UniProt Q96SW2+Q96CP6). As to the kind of experiment: PROTAC activity at CRBN/aster A in human HeLa cells at 10 uM incubated for 18 hrs by Western blotting analysis. It counts as cell-based.
Target sequence in this assay (Q96SW2 whole entry, looked up, one chain of several): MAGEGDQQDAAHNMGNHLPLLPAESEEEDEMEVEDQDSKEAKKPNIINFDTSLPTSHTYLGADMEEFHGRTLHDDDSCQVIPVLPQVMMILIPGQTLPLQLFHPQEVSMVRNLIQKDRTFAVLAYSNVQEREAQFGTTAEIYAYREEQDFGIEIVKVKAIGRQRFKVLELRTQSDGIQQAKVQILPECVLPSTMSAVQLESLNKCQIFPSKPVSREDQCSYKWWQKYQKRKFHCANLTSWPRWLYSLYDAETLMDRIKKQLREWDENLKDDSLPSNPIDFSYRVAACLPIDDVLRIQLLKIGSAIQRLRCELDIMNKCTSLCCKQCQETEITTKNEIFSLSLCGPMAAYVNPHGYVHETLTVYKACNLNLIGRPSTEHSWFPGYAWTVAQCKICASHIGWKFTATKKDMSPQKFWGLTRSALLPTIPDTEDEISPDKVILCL
Data set [11] has as its target T4, Protein cereblon/Protein Aster-A. Put plainly: PROTAC activity at CRBN/aster A in human HeLa cells assessed as aster A degradation incubated for 18 hrs by Western blotting analysis. Type of data set: cell-based.
Data set [12] has the same target. As to the kind of experiment: PROTAC activity at CRBN/aster A in human HeLa cells assessed as maximum degradation incubated for 18 hrs by Western blotting analysis. Type of data set: cell-based.
Target sequence in this assay (Q96SW2 whole entry, looked up, one chain of several): as above
Data set [13] has the same target. As to the kind of experiment: PROTAC activity at CRBN/aster A in human HeLa cells assessed as aster A degradation at 10 uM incubated for 18 hrs in presence of MLN4924 by Western blotting analysis. It counts as cell-based.
Target sequence in this assay (Q96SW2 whole entry, looked up, one chain of several): as above
Data set [14] shares this target. As to the kind of experiment: PROTAC activity at CRBN/aster A in human HeLa cells assessed as aster A degradation at 10 uM incubated for 18 hrs in presence of MG132 by Western blotting analysis. Type of data set: cell-based.
Target sequence in this assay (Q96SW2 whole entry, looked up, one chain of several): as above
Data set [15] concerns the target T1, Protein Aster-A (Homo sapiens). Put plainly: Induction of aster A degradation in human MCF7 cells. Type of data set: cell-based.
Data set [16] has the same target. Put plainly: Induction of aster A degradation in human A549 cells. It counts as cell-based.

The source made the active and inactive calls. The rule behind the calls is not given here.

The values below come from ChEMBL document CHEMBL5550107, “Fluorescent probes and degraders of the sterol transport protein Aster-A” (Bioorg Med Chem, 2024).

In the case of `Cc1ncsc1-c1ccc(CNC(=O)[C@H]2C[C@H](O)CN2C(=O)[C@@H](NC(=O)COCCOCCNC(=O)c2ccc(C(=O)Nc3nc4c(s3)CN(C(=O)OC(C)(C)C)CC4)cc2)C(C)(C)C)cc1`, the ΔTm in data set [1] turned out to be 4.4 °C. Moreover, the results for the IC50 on Protein Aster-A [2] and at Protein Aster-A [3] were 1470 nM and 3700 nM, respectively.
Consider `CC(C)(C)OC(=O)N1CCC2N=C(NC(=O)c3ccc(C(=O)NCCCOCCOCCCNc4cccc5c4C(=O)N(C4CCC(=O)NC4=O)C5=O)cc3)SC2C1` (configuration not stated), for which the figures for the Kd on Protein Aster-A [4] and at Protein Aster-A [5] were 110 nM and 37 nM, respectively. Further, the ΔTm in [1] amounted to 5 °C. Also, the outcome in [6] was Active.
As for `CC(C)(C)OC(=O)N1CCC2N=C(NC(=O)c3ccc(C(=O)NCCCOCCOCCOCCCNc4cccc5c4C(=O)N(C4CCC(=O)NC4=O)C5=O)cc3)SC2C1` (configuration not stated), the dissociation constant Kd at Protein Aster-A [4] was 86 nM; on Protein Aster-A [5] it was 68 nM. Besides, the ΔTm in data set [1] is 5.8 °C. The “Autophagy inhibition (active/not active)” value in the data set with MCF7 is “Active”. In addition, the outcome in [6] was Active.
`CC(C)Oc1ccc(C(=O)Nc2nc3c(s2)CN(C(=O)OC(C)(C)C)CC3)cc1`: in data set [1], the ΔTm is 6.8 °C. Besides, the IC50 at Protein Aster-A [2] was found to be 1180 nM; at Protein Aster-A [3], 1930 nM.
Consider `CCN(CC)CCO[C@H]1CC[C@@]2(C)C(=CC[C@@H]3[C@@H]2CC[C@]2(C)C(=O)CC[C@@H]32)C1`, for which, in data set [1], the ΔTm is 5.6 °C.
Consider `CC(C)(C)OC(=O)NCCOCCOCCNc1cccc2c1C(=O)N(C1CCC(=O)NC1=O)C2=O` (configuration not stated), for which the Kd at Protein Aster-A [4] and at Protein Aster-A [5] was over 5000 nM in each case. In data set [1], the ΔTm amounted to 0.3 °C.
For `CC(C)(C)OC(=O)N1CCC2N=C(NC(=O)c3ccc(C(=O)NCCOCCOCCOCCNc4cccc5c4C(=O)N(C4CCC(=O)NC4=O)C5=O)cc3)SC2C1` (configuration not stated), the values for the Kd at Protein Aster-A [4] and at Protein Aster-A [5] were 88 nM and 49 nM, respectively. Moreover, the ΔTm in data set [1] amounted to 4.9 °C. Also, the result in data set [6] was Active.
`CC12CCC(O)CC1CCc1cnn(-c3ccccc3F)c12` (configuration not stated): in data set [1], the ΔTm amounted to 0.2 °C. The IC50 on Protein Aster-A [2] and at Protein Aster-A [3] was over 10000 nM throughout.
In the case of `Cc1ncsc1-c1ccc(CNC(=O)[C@H]2C[C@H](O)CN2C(=O)[C@@H](NC(=O)CCCCCCCCCNC(=O)c2ccc(C(=O)Nc3nc4c(s3)CN(C(=O)OC(C)(C)C)CC4)cc2)C(C)(C)C)cc1`, in data set [1], the ΔTm was 1.6 °C. Besides, the IC50 on Protein Aster-A [2] and at Protein Aster-A [3] was over 10000 nM in each case.
For the compound `CC(C)(C)OC(=O)N1CCC2N=C(NC(=O)c3ccc(C(=O)NCCCCCCNc4cccc5c4C(=O)N(C4CCC(=O)NC4=O)C5=O)cc3)SC2C1` (configuration not stated), the results for the Kd on Protein Aster-A [4] and at Protein Aster-A [5] were 765 nM and 745 nM, respectively. The ΔTm in data set [1] was 3.2 °C. In addition, the Drug uptake entry in [7] is listed as “Active”. For the same compound, the “Autophagy inhibition (active/not active)” value in the data set with MCF7 was “inactive”. For the same compound, the outcome in data set [6] was Active.
Turning to `Nc1cccc2c1C(=O)N(C1CCC(=O)NC1=O)C2=O` (configuration not stated) [POMALIDOMIDE], the Kd at Protein Aster-A [4] and at Protein Aster-A [5] was over 5000 nM in each case. Besides, the ΔTm in data set [1] was 0.1 °C.
On to `CC(C)(C)OC(=O)N1CCC2N=C(NC(=O)c3ccc(C(=O)NCCCCCCCCCCNc4cccc5c4C(=O)N(C4CCC(=O)NC4=O)C5=O)cc3)SC2C1` (configuration not stated), for which the Kd at Protein Aster-A [4] and at Protein Aster-A [5] was over 5000 nM each time. The thermal shift (ΔTm) in data set [1] worked out at 1.2 °C. Further, in the data set on MCF7, the “Autophagy inhibition (active/not active)” value was “inactive”. Besides, the outcome in [6] was Active.
With `CC(C)(C)OC(=O)N1CCC2N=C(NC(=O)c3ccc(C(=O)NCCOCCOCCNc4cccc5c4C(=O)N(C4CCC(=O)NC4=O)C5=O)cc3)SC2C1` (configuration not stated), the Kd on Protein Aster-A [4] is over 5000 nM; at Protein Aster-A [5] it was 149 nM. Further, in data set [1], the ΔTm amounted to 4 °C. Further, the “Autophagy inhibition (active/not active)” value in the data set with MCF7 is “Active”. In addition, in data set [6], the outcome was Active.
Turning to `CC(C)(C)OC(=O)N1CCC2N=C(NC(=O)c3ccc(C(=O)NCCCOCCCCOCCCNc4cccc5c4C(=O)N(C4CCC(=O)NC4=O)C5=O)cc3)SC2C1` (configuration not stated), the results for the dissociation constant Kd on Protein Aster-A [4] and at Protein Aster-A [5] were 83 nM and 90 nM, respectively. Also, in data set [1], the ΔTm was 5.7 °C. Further, the outcome (in the data set listed under Homo sapiens; in data set [8]; in data set [9]; in [13]; in [14]; in [15]) was inactive. For the same compound, in [16], the outcome was inactive. Moreover, the Activity is 50% in data set [10] and “Dose-Dependent Effect” in data set [11]. The DC50 in data set [11] is 4800 nM. Further, the maximal effect (Emax) in data set [12] was 60%. Besides, the “Autophagy inhibition (active/not active)” value with MCF7 was “Active”. The outcome in data set [6] was Active.
Regarding `Cc1ncsc1-c1ccc(CNC(=O)[C@H]2C[C@H](O)CN2C(=O)[C@@H](NC(=O)CCCCCCNC(=O)c2ccc(C(=O)Nc3nc4c(s3)CN(C(=O)OC(C)(C)C)CC4)cc2)C(C)(C)C)cc1`, the ΔTm in data set [1] amounted to 3.6 °C. The IC50 at Protein Aster-A [2] came to 2750 nM; on Protein Aster-A [3], 4680 nM.
